{"source": "PubChem BioAssay AID1259411", "about": "(Chemical Carcinogenesis Research Information System (CCRIS), 2018)", "system": "rodent carcinogenicity bioassays, tumor incidence", "assay": "CCRIS carcinogenicity studies", "outline": "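NCI-built, expert-reviewed records of carcinogenicity and related test outcomes (mutagenicity, tumor promotion/inhibition) compiled from published and report sources, historical span 1985-2011, not updated.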", "note": "Active and inactive are the calls of the source. How the calls were made is not given here.", "data": [{"smiles": "Nc1nc(/C=C/c2ccc([N+](=O)[O-])o2)no1", "values": [{"measurement": "carcinogen call", "setting": "Species: MOUSE, Strain/Sex: CD-1/FEMALE, Route: GAVAGE, Dose: 0, 41, 82, 173 MG/KG/D SUSPENDED IN 25% GLYCEROL 4 D/WK FOR 371 D (TOTAL DOSE 0; 15.4; 30.9; 64.2 G) (STUDY DURATION: LI, Dose: 0, 41, 82, 173 MG/KG/D SUSPENDED IN 25% GLYCEROL 4 D/WK FOR 371 D (TOTAL DOSE 0; 15.4; 30.9; 64.2 G) (STUDY DURATION: LI, Tumor Site: Type of Lesion: THYMUS: LYMPHOMA, BLADDER: TRANSITIONAL CELL CARCINOMA, STOMACH: SQUAMOUS CELL CARCINOMA, SQUAMOUS PAPILLOMA, LUNG: ADEN, Tumor Site: Type of Lesion: THYMUS: LYMPHOMA, BLADDER: TRANSITIONAL CELL CARCINOMA, STOMACH: SQUAMOUS CELL CARCINOMA, SQUAMOUS PAPILLOMA, LUNG: ADEN", "result": "active; positive"}, {"measurement": "carcinogen call", "setting": "Species: MOUSE, Strain/Sex: CD-1/FEMALE, Route: ORAL, Dose: 0, 0.17% IN DIET FOR 58 WK (STUDY DURATION: 91 WK), Tumor Site: Type of Lesion: HEMATOPOIETIC SYSTEM: LYMPHOMA, THYMUS: LYMPHOMA, STOMACH: SQUAMOUS CELL CARCINOMA, SPINDLE CELL TUMOR, Tumor Site: Type of Lesion: HEMATOPOIETIC SYSTEM: LYMPHOMA, THYMUS: LYMPHOMA, STOMACH: SQUAMOUS CELL CARCINOMA, SPINDLE CELL TUMOR", "result": "active; positive"}, {"measurement": "carcinogen call", "setting": "Species: MOUSE, Strain/Sex: CD-1/FEMALE, Route: ORAL, Dose: 0, 0.25% IN DIET FOR 31 WK (STUDY DURATION: LIFE), Tumor Site: Type of Lesion: THYMUS: LYMPHOMA, STOMACH: SQUAMOUS CELL CARCINOMA, LUNG: ADENOMA, MAMMARY GLAND: ADENOCARCINOMA, Tumor Site: Type of Lesion: THYMUS: LYMPHOMA, STOMACH: SQUAMOUS CELL CARCINOMA, LUNG: ADENOMA, MAMMARY GLAND: ADENOCARCINOMA", "result": "active; positive"}, {"measurement": "carcinogen call", "setting": "Species: MOUSE, Strain/Sex: CD-1/MALE, Route: GAVAGE, Dose: 0, 45, 87, 185 MG/KG/D SUSPENDED IN 25% GLYCEROL 4 D/WK FOR 371 D (TOTAL DOSE 0; 16.8; 32.3; 68.8 G) (STUDY DURATION: LI, Dose: 0, 45, 87, 185 MG/KG/D SUSPENDED IN 25% GLYCEROL 4 D/WK FOR 371 D (TOTAL DOSE 0; 16.8; 32.3; 68.8 G) (STUDY DURATION: LI, Tumor Site: Type of Lesion: THYMUS: LYMPHOMA, BLADDER: TRANSITIONAL CELL CARCINOMA, STOMACH: SQUAMOUS CELL CARCINOMA, SQUAMOUS PAPILLOMA, LUNG: ADEN, Tumor Site: Type of Lesion: THYMUS: LYMPHOMA, BLADDER: TRANSITIONAL CELL CARCINOMA, STOMACH: SQUAMOUS CELL CARCINOMA, SQUAMOUS PAPILLOMA, LUNG: ADEN", "result": "active; positive"}, {"measurement": "carcinogen call", "setting": "Species: MOUSE, Strain/Sex: CD-1/MALE, Route: ORAL, Dose: 0, 0.18% IN DIET FOR 58 WK (STUDY DURATION: 92 WK), Tumor Site: Type of Lesion: THYMUS: LYMPHOMA, BLADDER: TRANSITIONAL CELL CARCINOMA, STOMACH: SQUAMOUS CELL CARCINOMA, SPINDLE CELL TUMOR, Tumor Site: Type of Lesion: THYMUS: LYMPHOMA, BLADDER: TRANSITIONAL CELL CARCINOMA, STOMACH: SQUAMOUS CELL CARCINOMA, SPINDLE CELL TUMOR", "result": "active; positive"}, {"measurement": "carcinogen call", "setting": "Species: MOUSE, Strain/Sex: CD-1/MALE, Route: ORAL, Dose: 0, 0.25% IN DIET FOR 38 WK (STUDY DURATION: LIFE), Tumor Site: Type of Lesion: THYMUS: LYMPHOMA, BLADDER: TRANSITIONAL CELL CARCINOMA, SPINDLE CELL TUMOR, STOMACH: SQUAMOUS CELL CARCINOMA, SQUAMOUS P, Tumor Site: Type of Lesion: THYMUS: LYMPHOMA, BLADDER: TRANSITIONAL CELL CARCINOMA, SPINDLE CELL TUMOR, STOMACH: SQUAMOUS CELL CARCINOMA, SQUAMOUS P", "result": "active; positive"}]}, {"smiles": "CC(C)Nc1nc(Cl)nc(NCC(=O)O)n1", "values": [{"measurement": "carcinogen call", "setting": "Species: Mouse, Strain/Sex: Crl:CD-1(ICR)BR/Female, Route: Oral, Dose: 0, 10, 30, 300, 900 ppm in diet for 18 mo, Dose: 0, 10, 30, 300, 900 ppm in diet for 18 mo", "result": "inactive; negative"}, {"measurement": "carcinogen call", "setting": "Species: Mouse, Strain/Sex: Crl:CD-1(ICR)BR/Male, Route: Oral, Dose: 0, 10, 30, 300, 900 ppm in diet for 18 mo, Dose: 0, 10, 30, 300, 900 ppm in diet for 18 mo, Tumor Site: Type of Lesion: Liver: Multiple hepatocellular adenomas (3/60 at 900 ppm vs. 0/60 in controls) Blood Vessels: Hemangiosarcomas (2/60 at", "result": "active; positive (only at highest dose)"}, {"measurement": "carcinogen call", "setting": "Species: Rat, Strain/Sex: Crl:CD BR/Female, Route: Oral, Dose: 0, 5, 15, 30, 300, 900 ppm in diet for 24 mo, Dose: 0, 5, 15, 30, 300, 900 ppm in diet for 24 mo", "result": "inactive; negative"}, {"measurement": "carcinogen call", "setting": "Species: Rat, Strain/Sex: Crl:CD BR/Male, Route: Oral, Dose: 0, 5, 15, 30, 300, 900 ppm in diet for 24 mo, Dose: 0, 5, 15, 30, 300, 900 ppm in diet for 24 mo, Tumor Site: Type of Lesion: Thyroid: Thyroid follicular cell adenoma", "result": "active; positive (at highest dose only); ca dpr describes as a possible adverse effect"}]}, {"smiles": "C=CCc1ccc(OC)cc1", "values": [{"measurement": "carcinogen call", "setting": "Species: MOUSE, Strain/Sex: B6C3F1/MALE, Route: INTRAPERITONEAL, Dose: 0, 4.75 UMOL TOTAL DOSE, D 1,8,15 AND 22 AFTER BIRTH, AUTOPSIED AT 13-18 MO, Dose: 0, 4.75 UMOL TOTAL DOSE, D 1,8,15 AND 22 AFTER BIRTH, AUTOPSIED AT 13-18 MO, Tumor Site: Type of Lesion: LIVER: HEPATOMA", "result": "active; positive"}, {"measurement": "carcinogen call", "setting": "Species: MOUSE, Strain/Sex: C3H/MALE, Route: INTRAPERITONEAL, Dose: 0, 9.45 UMOL TOTAL DOSE, D 1,8,15 AND 22 AFTER BIRTH, AUTOPSIED AT 12 MO, Dose: 0, 9.45 UMOL TOTAL DOSE, D 1,8,15 AND 22 AFTER BIRTH, AUTOPSIED AT 12 MO, Tumor Site: Type of Lesion: LIVER: HEPATOMA", "result": "active; positive"}, {"measurement": "carcinogen call", "setting": "Species: MOUSE, Strain/Sex: CD-1/FEMALE, Route: ORAL, Dose: 0, 0.23, 0.46% IN DIET, FOR 12 MO, Dose: 0, 0.23, 0.46% IN DIET, FOR 12 MO, Tumor Site: Type of Lesion: LIVER: HEPATOMA", "result": "active; positive"}, {"measurement": "carcinogen call", "setting": "Species: MOUSE, Strain/Sex: CD-1/MALE,FEMALE, Route: GAVAGE, Dose: 0, 25 UMOL/G TOTAL DOSE, 2/WK FOR 5 WK BEGINNING ON D 4 AFTER BIRTH, AUTOPSIED AT 11-14 MO, Dose: 0, 25 UMOL/G TOTAL DOSE, 2/WK FOR 5 WK BEGINNING ON D 4 AFTER BIRTH, AUTOPSIED AT 11-14 MO, Tumor Site: Type of Lesion: LIVER: HEPATOMA", "result": "active; positive"}, {"measurement": "carcinogen call", "setting": "Species: MOUSE, Strain/Sex: CD-1/MALE, Route: SUBCUTANEOUS, Dose: 0, 0.17, 0.35 UMOL IN 0.025 ML TRIOCTANOIN WITHIN 24 HR AFTER BIRTH THEN 0, 0.47, 0.69 UMOL IN 0.05 ML TRIOCTANOIN ON D, Dose: 0, 0.17, 0.35 UMOL IN 0.025 ML TRIOCTANOIN WITHIN 24 HR AFTER BIRTH THEN 0, 0.47, 0.69 UMOL IN 0.05 ML TRIOCTANOIN ON D, Tumor Site: Type of Lesion: LIVER: HEPATOCELLULAR CARCINOMA", "result": "active; positive"}, {"measurement": "carcinogen call", "setting": "Species: MOUSE, Strain/Sex: CD-1/MALE, Route: SUBCUTANEOUS, Dose: 0, 4.43, 5.19 UMOL TOTAL DOSE, D 1,8,15 AND 22 AFTER BIRTH, Dose: 0, 4.43, 5.19 UMOL TOTAL DOSE, D 1,8,15 AND 22 AFTER BIRTH, Tumor Site: Type of Lesion: LIVER: HEPATOCELLULAR CARCINOMA", "result": "active; positive"}, {"measurement": "carcinogen call", "setting": "Species: Mouse, Strain/Sex: ICR/Female (30 324 day survivors/Group), Route: Intraperitoneal injection, Dose: 150 mg/kg bw a wk for 17 wks, study duration 537 days, Tumor Site: Type of Lesion: Liver: Hepatocellular adenoma and carcinoma", "result": "active; positive (80% incidence). apparent lack of concurrent controls."}]}, {"smiles": "C/C(=C(\\CCOC(=O)c1ccccc1)SC(=O)c1ccccc1)N(C=O)Cc1cnc(C)nc1N", "values": [{"measurement": "carcinogen call", "setting": "Species: RAT, Strain/Sex: SPRAGUE-DAWLEY/FEMALE, Route: ORAL, Dose: 0, 1000, 10000 PPM IN DIET FOR DURATION OF STUDY (STUDY DURATION: 105 WK), Dose: 0, 1000, 10000 PPM IN DIET FOR DURATION OF STUDY (STUDY DURATION: 105 WK)", "result": "inactive; negative"}, {"measurement": "carcinogen call", "setting": "Species: RAT, Strain/Sex: SPRAGUE-DAWLEY/MALE, Route: ORAL, Dose: 0, 1000, 10000 PPM IN DIET FOR DURATION OF STUDY (STUDY DURATION: 105 WK), Dose: 0, 1000, 10000 PPM IN DIET FOR DURATION OF STUDY (STUDY DURATION: 105 WK)", "result": "inactive; negative"}]}, {"smiles": "CC(CCl)OC(C)CCl", "note": "(centres undefined)", "values": [{"measurement": "carcinogen call", "setting": "Species: MOUSE, Strain/Sex: B6C3F1/FEMALE, Route: GAVAGE, Dose: 0, 100, 200 MG/KG IN CORN OIL 5/WK FOR 103 WK, Dose: 0, 100, 200 MG/KG IN CORN OIL 5/WK FOR 103 WK, Tumor Site: Type of Lesion: LUNG: ALVEOLAR/BRONCHIOLAR ADENOMA, CARCINOMA", "result": "active; positive"}, {"measurement": "carcinogen call", "setting": "Species: MOUSE, Strain/Sex: B6C3F1/MALE, Route: GAVAGE, Dose: 0, 100, 200 MG/KG IN CORN OIL 5/WK FOR 103 WK, Dose: 0, 100, 200 MG/KG IN CORN OIL 5/WK FOR 103 WK, Tumor Site: Type of Lesion: LUNG: ALVEOLAR/BRONCHIOLAR ADENOMA, CARCINOMA, LIVER: HEPATOCELLULAR ADENOMA, CARCINOMA", "result": "active; positive"}, {"measurement": "carcinogen call", "setting": "Species: RAT, Strain/Sex: F344/FEMALE, Route: GAVAGE, Dose: 0, 100, 200 MG/KG IN CORN OIL, Dose: 0, 100, 200 MG/KG IN CORN OIL", "result": "inactive; negative"}, {"measurement": "carcinogen call", "setting": "Species: RAT, Strain/Sex: F344/MALE, Route: GAVAGE, Dose: 0, 100, 200 MG/KG IN CORN OIL, Dose: 0, 100, 200 MG/KG IN CORN OIL", "result": "inactive; negative"}]}, {"smiles": "C#C[C@]1(O)CC[C@H]2[C@@H]3CCC4=CC(=O)CC[C@@H]4[C@H]3CC[C@@]21C", "values": [{"measurement": "carcinogen call", "setting": "Species: MOUSE, Route: ORAL, Tumor Site: Type of Lesion: LIVER, LUNG", "result": "active; positive"}]}]}
